Reference: patent US20030212105A1, “Novel anti-fertility agent” (priority 2002, published 2003)

Legend:
female albino rats [1] = experiment: Anti-implantation studies of roxatidine acetate in female rats (post coital); format: in vivo, rat
Protocol: Roxatidine was screened as a post coital anti-fertility agent on different days of pregnancy i.e. day 1st, days 1st-3rd day 4th i.e. day of ([…] days 1st-5th, days 1st-7th and day 15th-20th i.e. period of organogenesis) post coitum. The aim of the study was to determine the minimum possible dose of drug showing anti implantation activity and the specific days of gestation period when the activity is maximum studies were carried out in order to determine the possible mechanism of action of the drug. Further ELISA was conducted to assess the effects of roxatidine on the serum level of estrogen and progesterone respectively.
Daily vaginal smears of the female albino rats were taken and the regular periodicity of the estrus cycle was checked.
The animals were held, ventral side up and a drop of 0.9% saline was inserted into the vagina with the help of a Pasteur pipette, carefully, without damaging the vaginal wall to avoid false positive smears. The drop of normal saline was aspirated and replaced several times with the vaginal fluid, withdrawn and transferred to a microscopic slide. A coverslip was placed carefully on the smear avoiding the air bubble. The slide was then observed under a compound microscope (magnification-45×) and the stage of estrus cycle was determined.
Female rats in proestrus or estrus stage were housed with mature male rats (in the ratio 3 females:1 male). Each female was examined for the presence of spermatozoa in the early morning. The day on which this sign of mating is seen is taken as day 1 of pregnancy. The female was then separated and caged singly. Roxatidine was administered orally to the animal once daily on specific days of pregnancy at different concentrations.
Pregnant rats were divided into 5 groups of 10 animals each. To group I, which served as control, a constant volume of distilled water was administered orally with the help of a catheter. The drug namely, roxatidine was administered at doses of 2.5, 10, 15 & 20 mg/kg body weight orally, on specific days of pregnancy.
Fifty albino rats were divided into groups of 10 animals each. Group I served as control and received distilled water. Group II to V received Roxatidine acetate at doses of 2.5,10,15 & 20 mg/kg body weight, orally respectively on day 1 postcoital with the help of a catheter.
On day 10 of pregnancy the animal was laprotomized and the number of implants present in both the uterine horns as well as the number of corpora lutea on each ovary was counted. The animals were allowed to complete the gestation period (usually 21-23 days) and the number of litters delivered, if any were counted In this case, 2 litters were delivered.
Fifty albino rats were divided into groups of 10 animals each. Group I served as control and received distilled water. Group II to V received Roxatidine acetate at doses of 2.5,10,15 & 20 mg/kg body weight, orally respectively on day 1-3 postcoital with the help of a catheter.
On day 10 of pregnancy the animal was laprotomized and the number of implants present in both the uterine horns as well as the number of corpora lutea on each ovary was counted.
Fifty albino rats were divided into groups of 10 animals each. Group I served as control and received distilled water. Group II to V received Roxatidine acetate at doses of 2.5,10,15 & 20 mg/kg body weight, orally respectively on day 4 postcoital with the help of a catheter.
On day 10 of pregnancy the animal was laprotomized and the number of implants present in both the uterine horns as well as the number of corpora lutea on each ovary was counted. The animals were allowed to complete the gestation period (usually 21-23 days) at the end of which 3 litters were found.
Fifty albino rats were divided into groups of 10 animals each. Group I served as control and received distilled water. Group II to V received Roxatidine acetate at doses of 2.5, 10, 15 & 20 mg/kg body weight, orally respectively on day 1-7 postcoital with the help of a catheter. […]

female albino rats [2] = experiment: Preovulatory effects of roxatidine acetate in female albino rats; format: in vivo, rat; details: 2.5, 10, 15 & 20 mg/kg for 15 consecutive days before mating; dose group not stated
Protocol: Animals with normal estrus cycle were divided into […] with 10 animals in each group. Group I served as control and received distilled water orally. Animals in Group II, II, IV & V were administered roxatidine acetate at the doses of 2.5, 10, 15, & 20 mg/kg body weight respectively, for 15 consecutive days. During this period daily vaginal smears were taken to observe the regularity of the estrus cycle.
The females in all the groups were then paired with males of proven fertility. Daily vaginal smears were taken until the animals successfully mated. This was indicated by the presence of spermatozoa in the vaginal smears and this was taken as day 1 of pregnancy. On day 10 each animal was laprotomized and the no. of implants/resorption sites and the no. of corpora lutea were counted. The number of litters delivered at the end of the gestation period were 2.

[3] = Solubility in water (preparation of drug solution); format: physicochemical; details: distilled water
pregnant female rats = details: cited from earlier work

solubility in water [3]	Structure (SMILES)	number of litters found at end of gestation period (female albino rats [1]; 2.5, 10, 15 & 20 mg/kg orally on day 1-3 postcoital, gestation 21-23 days)	number of litters found at end of gestation period (female albino rats [1]; 2.5, 10, 15 & 20 mg/kg orally on day 1-5 postcoital, gestation 21-23 days)	number of litters found at end of gestation period (female albino rats [1]; 2.5, 10, 15 & 20 mg/kg orally on day 1-7 postcoital, gestation 21-23 days)	number of litters delivered at end of gestation period (female albino rats [1]; 2.5, 10, 15 & 20 mg/kg orally on day 1 postcoital, gestation 21-23 days, dose group not stated)	number of litters found at end of gestation period (female albino rats [1]; 2.5, 10, 15 & 20 mg/kg orally on day 4 postcoital, gestation 21-23 days, dose group not stated)	number of litters seen at end of gestation period (female albino rats [1]; 2.5, 10, 15 & 20 mg/kg orally on day 15-20 postcoital, gestation 21-23 days, dose group not stated)	inhibition of implantation (female albino rats [1]; administered in animal models)	number of litters delivered at the end of the gestation period (female albino rats [2])	anti-implantation effects (pregnant female rats; oral, daily for 1-7 days post coitum, pregnant female rats)	oestrogenic/anti-oestrogenic activity (pregnant female rats; rats)
readily and completely soluble in water	CC(=O)OCC(=O)NCCCOc1cccc(CN2CCCCC2)c1 [Roxatidine acetate]	no litters were found	no litters were found	no litters were found	2	3	2	effective in inhibiting implantation	2		
	CN/C(=N/CCSCc1nc[nH]c1C)NC#N [cimetidine]									exhibited anti-implantation effects	did not possess oestrogenic/anti-oestrogenic activity
